Data as given in patent publication US10842152B2, “Isothiazolo-based bicycles, processes for their preparation and their use as herbicides and/or plant growth regulators” (Bayer CropScience Aktiengesellschaft, priority 2017, dated 2020).

Key:
Alopecurus myosuroides = experiment: Herbicidal effect pre-emergence; assay type: in vivo; conditions: 320 g/ha, visual grading after ca. 3 weeks vs untreated controls
Text: (§1) Herbicidal activities of the compounds of the formulae (G1) or (G2) according to the invention were investigated against the following harmful plants: • ALOMY=Alopecurus myosuroides • ECHCG=Echinochloa crus-galli • SETVI=Setaria viridis • ABUTH=Abutilon theophrasti • AMARE=Amaranthus retroflexus • PHBPU=Pharbitis purpurea • POLCO=Polygonum convolvulus (=Fallopia convolvulus) • STEME=Stellaria media • VIOTR=Viola tricolor
(§2) Seeds of mono- and dicotyledonous weed plants and crop plants are sown in wood-fiber pots in sandy loam and covered with soil. The compounds according to the invention, formulated in the form of wettable powders (WP) or as emulsifiable concentrates (EC), are then applied to the surface of the covering soil as aqueous suspension or emulsion, with the addition of 0.5% of an additive, at an application rate of 600 l of water/ha (converted).
(§3) Following treatment, the pots are placed in a greenhouse and kept under optimum growth conditions for the test plants. The visual grading of the damage to the test plants is carried out after ca. 3 weeks in comparison to untreated controls (herbicidal effect in percent (%): 100% effect=plants have died off, 0% effect=as control plants).

Amaranthus retroflexus [1] = experiment: Herbicidal effect pre-emergence; assay type: in vivo; conditions: 320 g/ha, visual grading after ca. 3 weeks vs untreated controls
Text: as §1, §2, §3

Setaria viridis [2] = experiment: Herbicidal effect pre-emergence; assay type: in vivo; conditions: 320 g/ha, visual grading after ca. 3 weeks vs untreated controls
Text: as §1, §2, §3

Stellaria media [3] = experiment: Herbicidal effect pre-emergence; assay type: in vivo; conditions: 320 g/ha, visual grading after ca. 3 weeks vs untreated controls
Text: as §1, §2, §3

Viola tricolor [4] = experiment: Herbicidal effect pre-emergence; assay type: in vivo; conditions: 320 g/ha, visual grading after ca. 3 weeks vs untreated controls
Text: as §1, §2, §3

MATIN [5] = experiment: Herbicidal effect pre-emergence; assay type: in vivo, Matricaria inodora; conditions: 320 g/ha, visual grading after ca. 3 weeks vs untreated controls
Text: as §2, §3

Abutilon theophrasti = experiment: Herbicidal effect post-emergence; assay type: in vivo; conditions: 320 g/ha, visual grading after ca. 3 weeks (Table 8)
Text: as §1
(§4) Seeds of mono- and dicotyledonous weed plants and crop plants are sown in wood-fiber pots in sandy loam, covered with soil and grown in a greenhouse under controlled growth conditions. 2 to 3 weeks after sowing, the test plants are sprayed in the single-leaf stage. The compounds according to the invention, formulated in form of wettable powders (WP) or as emulsifiable concentrates (EC), are then sprayed onto the green plant parts as aqueous suspension or emulsion, with the addition of 0.5% of an additive, at an application rate of 600 l of water/ha (converted). After the test plants had been in the greenhouse for ca. 3 weeks under optimum growth conditions, the effect of the preparations is assessed visually in comparison with untreated controls (herbicidal effect in percent (%): 100% effect=plants have died off, 0% effect=as control plants).

Amaranthus retroflexus [6] = experiment: Herbicidal effect post-emergence; assay type: in vivo; conditions: 320 g/ha
Text: as §1, §4

Setaria viridis [7] = experiment: Herbicidal effect post-emergence; assay type: in vivo; conditions: 320 g/ha
Text: as §1, §4

Viola tricolor [8] = experiment: Herbicidal effect post-emergence; assay type: in vivo; conditions: 320 g/ha
Text: as §1, §4

Meloidogyne incognita = Meloidogyne incognita test; assay type: in vivo; conditions: application rate 20 ppm, after 14 days, salad seedlings
Protocol: Solvent: 125.0 parts by weight of acetone
To produce a suitable preparation of active compound, 1 part by weight of active compound is mixed with the stated amount of solvent, and the concentrate is diluted with water to the desired concentration.
Vessels are filled with sand, a solution of the active ingredient, a suspension containing eggs and larvae of the southern root-knot nematode (Meloidogyne incognita) and salad seeds. The salad seeds germinate and the seedlings grow. Galls develop in the roots.
After 14 days the nematicidal activity is determined on the basis of the percentage of gall formation. 100% means no galls were found and 0% means the number of galls found on the roots of the treated plants was equal to that in untreated control plants.

Pharbitis purpurea = experiment: Herbicidal effect post-emergence; assay type: in vivo; conditions: 320 g/ha, visual grading after ca. 3 weeks (Table 7)
Text: as §1, §4

[9] = tested on: Polygonum convolvulus (=Fallopia convolvulus); experiment: Herbicidal effect post-emergence; assay type: in vivo; conditions: 320 g/ha, visual grading after ca. 3 weeks (Table 7)
Text: as §1, §4

Stellaria media [10] = experiment: Herbicidal effect post-emergence; assay type: in vivo; conditions: 320 g/ha, visual grading after ca. 3 weeks (Table 7)
Text: as §1, §4

MATIN [11] = experiment: Herbicidal effect post-emergence; assay type: in vivo, Matricaria inodora; conditions: 320 g/ha, visual grading after ca. 3 weeks (Table 7)
Text: as §4

Nezara viridula = Nezara viridula spray test; assay type: in vivo; conditions: application rate 500 g/ha, after 4 days, barley plants
Protocol: Solvent: 78.0 parts by weight of acetone • • 1.5 parts by weight of dimethylformamide
Emulsifier: alkylarylpolyglycol ether
To produce a suitable preparation of active compound, 1 part by weight of active compound is mixed with the stated amount of solvent, and the concentrate is diluted with water, containing an emulsifier concentration of 1000 ppm, to the desired concentration. Further test concentrations are prepared by dilution with emulsifier containing water.
Barley plants (Hordeum vulgare) infested with larvae of the southern green stink bug (Nezara viridula) are sprayed with a test solution containing the desired concentration of the active ingredient.
After 4 days mortality in % is determined. 100% means all the stink bugs have been killed; 0% means none of the stink bugs have been killed.

[12] = visual grading after ca. 3 weeks (Table 8)
[13] = visual grading after ca. 3 weeks (Table 9)
[14] = visual grading after ca. 3 weeks (Table 7)

Structure (SMILES)	herbicidal effect ALOMY (Alopecurus myosuroides) [%]	herbicidal effect AMARE (Amaranthus retroflexus [1]) [%]	herbicidal effect SETVI (Setaria viridis [2]) [%]	herbicidal effect STEME (Stellaria media [3]) [%]	herbicidal effect VIOTR (Viola tricolor [4]) [%]	herbicidal effect MATIN (MATIN [5]) [%]	herbicidal effect AMARE (Amaranthus retroflexus [6]; [14]) [%]	herbicidal effect PHBPU (Pharbitis purpurea) [%]	herbicidal effect POLCO [9] [%]	herbicidal effect SETVI (Setaria viridis [7]; [14]) [%]	herbicidal effect STEME (Stellaria media [10]) [%]	herbicidal effect VIOTR (Viola tricolor [8]; [14]) [%]	herbicidal effect MATIN (MATIN [11]) [%]	further results
CCC(=O)Nc1nsc2c(=O)n(CC3CCCCC3Cl)cc(Cl)c12 (racemic) [Example I-172]	100	100	100	100	100	100	–	–	–	–	–	–	–	herbicidal effect ABUTH (Abutilon theophrasti): 100%; herbicidal effect AMARE (Amaranthus retroflexus [6]; [12]): 100%; herbicidal effect SETVI (Setaria viridis [7]; [12]): 80%; herbicidal effect VIOTR (Viola tricolor [8]; [12]): 100%
Nc1nsc2c(=O)n(CC3CCCCC3)c(COC3CCCCO3)cc12 (stereo not drawn) [Example I-038]	–	–	–	–	–	–	–	–	–	–	–	–	–	nematicidal activity (gall formation) (Meloidogyne incognita): 90%
CCC(=O)OCC1Cc2c(N)nsc2C(=O)N1CC1CCCCC1 (stereo not drawn) [Example I-039]	–	100	100	–	100	–	–	–	–	–	–	–	–	herbicidal effect ABUTH (Abutilon theophrasti): 100%; herbicidal effect AMARE (Amaranthus retroflexus [6]; [12]): 100%; herbicidal effect SETVI (Setaria viridis [7]; [12]): 100%; herbicidal effect VIOTR (Viola tricolor [8]; [12]): 100%
CCC(=O)N(C(=O)CC)c1nsc2c(=O)n(CC3CCCCC3)c(COC3CCCCO3)cc12 (stereo not drawn) [Example I-042]	–	–	–	–	–	–	–	–	–	–	–	–	–	herbicidal effect AMARE (Amaranthus retroflexus [6]; [13]): 100%; herbicidal effect SETVI (Setaria viridis [7]; [13]): 90%; herbicidal effect VIOTR (Viola tricolor [8]; [13]): 100%; nematicidal activity (gall formation) (Meloidogyne incognita): 90%
CCC(=O)N(C(=O)CC)c1nsc2c(=O)n(CC3CCCCC3)c(CO)cc12 [Example I-049]	80	100	100	100	90	80	–	–	–	–	–	–	–	herbicidal effect AMARE (Amaranthus retroflexus [6]; [13]): 90%; herbicidal effect SETVI (Setaria viridis [7]; [13]): 100%; herbicidal effect VIOTR (Viola tricolor [8]; [13]): 100%; nematicidal activity (gall formation) (Meloidogyne incognita): 90%
CC(C)Cc1cc2c(N)nsc2c(=O)n1CC1CCCCC1 [Example I-050]	–	–	–	–	–	–	–	–	–	–	–	–	–	nematicidal activity (gall formation) (Meloidogyne incognita): 90%
Nc1nsc2c(=O)n(CC3CCCCC3)cc(Cl)c12 [Example I-064]	100	100	100	100	100	100	100	100	100	100	100	100	100	–
CCC(=O)Nc1nsc2c(=O)n(CC3CCCCC3)cc(Br)c12 [Example I-078]	100	100	100	100	100	100	–	–	–	–	–	–	–	herbicidal effect AMARE (Amaranthus retroflexus [6]; [13]): 100%; herbicidal effect SETVI (Setaria viridis [7]; [13]): 100%; herbicidal effect VIOTR (Viola tricolor [8]; [13]): 80%; mortality (Nezara viridula): 90%
CCC(=O)Nc1nsc2c(=O)n(CC3CCCCC3)cc(Cl)c12 [Example I-083]	100	100	100	100	100	100	–	–	–	–	–	–	–	herbicidal effect ABUTH (Abutilon theophrasti): 80%; herbicidal effect AMARE (Amaranthus retroflexus [6]; [12]): 100%; herbicidal effect SETVI (Setaria viridis [7]; [12]): 100%; herbicidal effect VIOTR (Viola tricolor [8]; [12]): 100%
CC(=O)Nc1nsc2c(=O)n(CC3CCCCC3)cc(Br)c12 [Example I-102]	–	100	100	–	100	–	–	–	–	–	–	–	–	herbicidal effect AMARE (Amaranthus retroflexus [6]; [13]): 100%; herbicidal effect SETVI (Setaria viridis [7]; [13]): 100%; herbicidal effect VIOTR (Viola tricolor [8]; [13]): 100%; mortality (Nezara viridula): 90%
O=C(Nc1nsc2c(=O)n(CC3CCCCC3)cc(F)c12)C(F)(F)C(F)(F)F [Example I-127]	100	100	100	100	100	100	100	100	100	100	100	100	100	–
CCC(=O)Nc1nsc2c(=O)n(CC3CCCCC3)cc(F)c12 [Example I-128]	100	100	100	100	100	100	100	100	100	100	100	100	100	–
Nc1nsc2c(=O)n(Cc3cc(F)c(F)cc3F)cc(Cl)c12 [Example I-136]	100	100	100	100	100	90	100	100	100	90	100	100	100	–
Nc1nsc2c(=O)n(Cc3cc(F)c(F)cc3F)cc(F)c12 [Example I-163]	100	100	100	100	100	100	–	–	–	–	–	–	–	herbicidal effect ABUTH (Abutilon theophrasti): 90%; herbicidal effect AMARE (Amaranthus retroflexus [6]; [12]): 100%; herbicidal effect SETVI (Setaria viridis [7]; [12]): 90%; herbicidal effect VIOTR (Viola tricolor [8]; [12]): 90%
O=C(Nc1nsc2c(=O)n(Cc3cc(F)c(F)cc3F)cc(F)c12)C(F)F [Example I-165]	100	100	100	100	100	100	100	80	100	90	100	100	100	–
